Measured values as given in US5998180A, “Nitrilase from Rhodoccus rhodochrous for converting acrylonitrile directly to acrylic acid” (priority 1995, dated 1999).
Read-outs that look alike come from different tables or passages of the source.

What was measured:
[1] = target: T1, Rhodococcus rhodochrous K22 nitrilase (Rhodococcus rhodochrous, UniProt Q02068); conditions: read-out: Km (acrylonitrile); reported in J. Bacteriol. 172, 9, 4807-4815; cited from earlier work
T1 sequence (Q02068 1-383): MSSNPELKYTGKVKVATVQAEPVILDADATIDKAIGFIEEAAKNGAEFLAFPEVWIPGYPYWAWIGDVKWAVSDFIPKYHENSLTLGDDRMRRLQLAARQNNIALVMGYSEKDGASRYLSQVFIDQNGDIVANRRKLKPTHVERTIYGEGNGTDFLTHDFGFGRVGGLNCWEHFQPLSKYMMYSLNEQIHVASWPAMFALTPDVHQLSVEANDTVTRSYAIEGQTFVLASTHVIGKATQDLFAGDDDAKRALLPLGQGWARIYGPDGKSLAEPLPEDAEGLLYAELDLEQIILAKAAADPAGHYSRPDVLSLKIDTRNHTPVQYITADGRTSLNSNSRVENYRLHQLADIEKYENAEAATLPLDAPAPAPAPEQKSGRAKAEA

[2] = tested on: Rhodococcus rhodochrous NCIMB 40757 nitrilase; test: Nitrilase kinetics of whole cells (acrylonitrile to ammonium acrylate); type: biochemical; conditions: for Km: 30° C.
Protocol: A novel nitrilase is characterised by having Km for acrylonitrile below 500 μM. Throughout this specification Km refers to Km measured at pH 7.0. […] In particular we use the conditions of Example 6 below. […] Microbial., 135 3153-3164 and those described for lactate dehydrogenase by Wagner (1990) Tibtech., 8, 263-270 will yield nitrilase having Km values up to 60 or 100, or perhaps 300 μM, and Km values down to. 9.4 and even 3.8 μM.
A novel nitrilase of the invention is characterised by having Ki for ammonium acrylate of at least 100 mM, preferably at least 150 or 200, more preferably at least 250 mM. Throughout this specification Ki refers to Ki measured at pH 7.0. […] Preferably measurement is under the conditions given in Example 7 below. […] It is envisaged that standard techniques and selection procedures, eg mutagenesis, will yield nitrilase having Ki for ammonium acrylate up to 300 mM or even 800 mM or greater.
(§1) The cells of the Rhodococcus rhodochrous strain grown as described in Example 1 were suspended in solutions of 50 mM pH 7 sodium phosphate buffer at 30° C. containing the concentrations of acrylonitrile shown in the table below. Samples were taken over time to determine the acrylonitrile, acrylamide and ammonium acrylate concentrations in the cell suspensions.
as §1, with “1.2 M ammonium acrylate” for “50 mM pH 7 sodium phosphate buffer”

[3] = tested on: Fusarium oxysporum f.sp. melonis nitrilase; conditions: read-out: Km (acrylonitrile), cited from earlier work

Compound | Km [1] [µM] | Km ([2]; whole cell form, 50 mM pH 7 sodium phosphate buffer, read-out: Km for acrylonitrile) [µM] | Km ([2]; whole cells in 1.2 M ammonium acrylate, read-out: apparent Km (acrylonitrile) in 1.2 M ammonium acrylate) [µM] | Km ([3]; Goldlust and Bohak (1989)) [µM] | Km ([3]; reported in Biotech. Appl. Biochem., 1989, 11, 581-601) [µM] | ratio (Ki for ammonium acrylate)/(Km for acrylonitrile) ([2]; initial experiments)
C=CC#N [acrylonitrile] | 1140 | 30.6 | 145 | 17000 | 17000 | 
C=CC(=O)O [ammonium acrylate] |  |  |  |  |  | greater than 10000
